Measured values: ChEMBL document CHEMBL1146039, “Synthesis and antitumor activity of two natural N-acetylglucosamine-bearing triterpenoid saponins: lotoidoside D and E” (Bioorg Med Chem Lett, 2006)

Assays:
[1] = test system: HeLa; assay: Antitumor activity against HeLa cell line by MTT assay; assay type: functional, cell-based; settings: Homo sapiens
[2] = test system: HeLa; assay: Antitumor activity against HeLa cell line at 10 uM by MTT assay; assay type: functional; settings: Homo sapiens
[3] = test system: HeLa; assay: Antitumor activity against HeLa cell line at 100 nM by MTT assay; assay type: functional; settings: Homo sapiens
[4] = test system: HeLa; assay: Antitumor activity against HeLa cell line at 1 uM by MTT assay; assay type: functional; settings: Homo sapiens
[5] = test system: WEHI-164; assay: Antitumor activity against WEHI 164 cell; assay type: functional, cell-based; settings: Mus musculus
[6] = test system: HeLa; assay: Antitumor activity against HeLa cell line at 10 nM by MTT assay; assay type: functional; settings: Homo sapiens

Row | IC50 [1] [nM] | IC50 [5] [nM] | Compound | inhibition at 10 µM [2] [%] | inhibition at 0.1 µM [3] [%] | inhibition at 1 µM [4] [%] | inhibition at 0.01 µM [6] [%]
1 | > 10000 | 30 | CC(=O)N[C@H]1[C@H](O[C@H]2CC[C@]3(C)[C@H]4CC=C5[C@@H]6CC(C)(C)CC[C@]6(C(=O)O)CC[C@@]5(C)[C@]4(C)CC[C@H]3C2(C)C)O[C@H](CO)[C@@H](O)[C@@H]1O[C@@H]1O[C@H](CO)[C@H](O)[C@H](O)[C@H]1O [LOTOIDOSIDE E] | 42 | 1.71 | 10 | 0.79
2 | 2740 | 360 | CC(=O)N[C@H]1[C@H](O[C@H]2CC[C@]3(C)[C@H]4CC=C5[C@@H]6CC(C)(C)CC[C@]6(C(=O)O)CC[C@@]5(C)[C@]4(C)CC[C@H]3C2(C)C)O[C@H](CO)[C@H](O[C@@H]2O[C@H](CO)[C@@H](O)[C@H](O)[C@H]2O)[C@@H]1O[C@@H]1O[C@H](CO)[C@H](O)[C@H](O)[C@H]1O [LOTOIDOSIDE D] | 56.4 | 32.8 | 35.3 | 34.4
